In ChEMBL document CHEMBL1909576, “Continued exploration of biphenylsulfonamide scaffold as a platform for aggrecanase-1 inhibition” (Bioorg Med Chem Lett, 2011):

Assays:
[1] = biological target: T1, A disintegrin and metalloproteinase with thrombospondin motifs 4 (Homo sapiens, UniProt O75173); test: Inhibition of aggrecanase-1
T1 sequence (O75173 whole entry): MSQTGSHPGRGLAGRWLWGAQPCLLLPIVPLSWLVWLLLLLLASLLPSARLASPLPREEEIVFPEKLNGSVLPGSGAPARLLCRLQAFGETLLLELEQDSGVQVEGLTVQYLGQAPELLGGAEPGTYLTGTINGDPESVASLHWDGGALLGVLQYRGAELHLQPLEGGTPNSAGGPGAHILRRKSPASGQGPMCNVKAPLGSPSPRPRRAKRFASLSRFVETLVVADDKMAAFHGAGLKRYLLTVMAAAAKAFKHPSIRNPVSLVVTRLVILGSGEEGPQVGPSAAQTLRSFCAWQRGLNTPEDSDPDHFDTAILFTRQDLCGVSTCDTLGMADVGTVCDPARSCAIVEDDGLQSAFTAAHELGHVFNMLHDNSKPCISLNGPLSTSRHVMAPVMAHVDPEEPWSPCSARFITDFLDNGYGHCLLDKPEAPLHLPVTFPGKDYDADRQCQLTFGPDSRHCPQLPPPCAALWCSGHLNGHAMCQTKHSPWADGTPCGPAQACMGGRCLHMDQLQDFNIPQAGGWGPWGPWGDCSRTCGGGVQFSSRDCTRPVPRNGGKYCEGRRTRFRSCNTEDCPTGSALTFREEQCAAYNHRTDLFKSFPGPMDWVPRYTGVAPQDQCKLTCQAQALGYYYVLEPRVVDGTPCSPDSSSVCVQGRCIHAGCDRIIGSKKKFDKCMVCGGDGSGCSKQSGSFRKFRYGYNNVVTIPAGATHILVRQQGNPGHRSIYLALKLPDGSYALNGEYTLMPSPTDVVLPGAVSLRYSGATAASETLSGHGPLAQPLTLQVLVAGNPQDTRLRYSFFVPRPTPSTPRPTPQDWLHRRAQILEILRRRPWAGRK

[2] = biological target: Collagenase 3 (Homo sapiens, UniProt P45452); test: Inhibition of MMP13
[3] = biological target: T2, A disintegrin and metalloproteinase with thrombospondin motifs 5 (Homo sapiens, UniProt Q9UNA0); test: Inhibition of aggrecanase-2
T2 sequence (Q9UNA0 whole entry): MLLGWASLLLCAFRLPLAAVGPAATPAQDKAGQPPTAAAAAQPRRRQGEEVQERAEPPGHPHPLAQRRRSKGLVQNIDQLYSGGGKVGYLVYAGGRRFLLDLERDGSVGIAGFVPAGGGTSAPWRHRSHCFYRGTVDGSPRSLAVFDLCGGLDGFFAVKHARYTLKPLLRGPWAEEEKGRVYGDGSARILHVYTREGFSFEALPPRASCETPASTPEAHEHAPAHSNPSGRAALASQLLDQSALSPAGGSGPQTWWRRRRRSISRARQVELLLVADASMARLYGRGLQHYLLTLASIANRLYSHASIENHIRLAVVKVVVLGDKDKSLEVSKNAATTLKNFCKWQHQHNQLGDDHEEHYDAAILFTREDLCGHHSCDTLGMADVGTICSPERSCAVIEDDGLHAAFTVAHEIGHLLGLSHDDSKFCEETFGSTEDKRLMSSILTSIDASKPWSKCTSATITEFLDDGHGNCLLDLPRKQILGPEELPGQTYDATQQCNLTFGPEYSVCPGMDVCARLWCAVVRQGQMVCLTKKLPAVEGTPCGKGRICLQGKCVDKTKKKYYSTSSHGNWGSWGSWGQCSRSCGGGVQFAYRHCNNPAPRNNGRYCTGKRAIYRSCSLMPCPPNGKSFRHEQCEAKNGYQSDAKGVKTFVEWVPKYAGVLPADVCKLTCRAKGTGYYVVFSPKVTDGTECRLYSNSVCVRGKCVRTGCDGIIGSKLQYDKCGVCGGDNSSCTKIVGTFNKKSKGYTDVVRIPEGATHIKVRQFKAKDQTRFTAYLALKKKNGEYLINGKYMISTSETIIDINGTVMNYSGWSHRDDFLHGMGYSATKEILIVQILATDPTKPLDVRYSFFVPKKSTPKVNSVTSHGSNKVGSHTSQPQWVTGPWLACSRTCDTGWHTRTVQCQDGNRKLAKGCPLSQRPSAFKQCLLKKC

[4] = biological target: T3, A disintegrin and metalloproteinase with thrombospondin motifs 4 (Bos taurus) (UniProt Q9TT93); test: Inhibition of aggrecanase 1 in bovine cartilage explant assessed as inhibition of IL1-stimulated proteoglycan degradation at 10 ug/ml
T3 sequence (whole entry): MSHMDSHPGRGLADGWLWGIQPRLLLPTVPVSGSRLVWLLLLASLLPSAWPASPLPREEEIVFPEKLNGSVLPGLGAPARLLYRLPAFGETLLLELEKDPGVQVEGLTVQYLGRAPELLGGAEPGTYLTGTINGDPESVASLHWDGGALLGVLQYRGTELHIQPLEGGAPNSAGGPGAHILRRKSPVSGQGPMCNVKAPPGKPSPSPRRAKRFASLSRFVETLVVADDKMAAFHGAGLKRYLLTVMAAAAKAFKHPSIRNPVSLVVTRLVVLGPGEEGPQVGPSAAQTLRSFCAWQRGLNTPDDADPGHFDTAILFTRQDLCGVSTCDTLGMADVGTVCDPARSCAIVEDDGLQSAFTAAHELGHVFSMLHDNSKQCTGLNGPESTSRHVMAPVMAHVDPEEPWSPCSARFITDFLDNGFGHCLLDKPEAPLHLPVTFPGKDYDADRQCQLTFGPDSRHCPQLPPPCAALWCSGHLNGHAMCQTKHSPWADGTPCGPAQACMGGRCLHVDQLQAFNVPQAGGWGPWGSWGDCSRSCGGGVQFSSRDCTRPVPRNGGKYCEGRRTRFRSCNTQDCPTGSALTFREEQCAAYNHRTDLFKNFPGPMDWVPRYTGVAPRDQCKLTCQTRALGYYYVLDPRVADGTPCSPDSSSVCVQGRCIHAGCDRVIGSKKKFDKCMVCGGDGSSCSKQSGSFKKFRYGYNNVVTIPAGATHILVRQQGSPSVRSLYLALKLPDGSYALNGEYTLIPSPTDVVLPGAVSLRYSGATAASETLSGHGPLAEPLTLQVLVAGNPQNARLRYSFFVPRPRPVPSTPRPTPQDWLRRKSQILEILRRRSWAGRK

[5] = biological target: T4, A disintegrin and metalloproteinase with thrombospondin motifs 5 (Homo sapiens) (UniProt Q9UNA0); test: Inhibition of aggrecanase-2 at 200 uM
T4 sequence (whole entry): T2 sequence (Q9UNA0 whole entry)

Row | SMILES | IC50 [1] [nM] | IC50 [2] [nM] | further results
1 | CC(C)[C@@H](NS(=O)(=O)c1ccc(-c2ccc(OCc3ccnc4ccccc34)cc2)cc1)C(=O)O | 1000 | 5.2 | 
2 | CC(C)[C@@H](NS(=O)(=O)c1ccc(-c2ccc(OCc3cccc(C(F)(F)F)n3)cc2)cc1)C(=O)O | 4700 | 4300 | 
3 | CC(C)[C@@H](NS(=O)(=O)c1ccc(-c2ccc(OCc3cccc(F)c3)cc2)cc1)C(=O)O | 2600 | 2.2 | 
4 | CC(C)[C@@H](NS(=O)(=O)c1ccc(-c2ccc(OC(=O)NCc3ccccc3)cc2)cc1)C(=O)O | 25000 |  | 
5 | CC(=O)Nc1cccc(-c2ccc(S(=O)(=O)N[C@@H](C(=O)O)C(C)C)cc2)c1 | 20000 |  | 
6 | CC(C)[C@@H](NS(=O)(=O)c1ccc(-c2ccc(OCc3ccncc3)cc2)cc1)C(=O)O | 8500 | 1.1 | 
7 | CC(C)[C@@H](NS(=O)(=O)c1ccc(-c2ccc(OC(=O)Nc3ccccc3)cc2)cc1)C(=O)O | 5600 |  | 
8 | CC(C)[C@@H](NS(=O)(=O)c1ccc(-c2cccc(C#N)c2)cc1)C(=O)O | 40000 |  | 
9 | Cc1cc(COc2ccc(-c3ccc(S(=O)(=O)N[C@@H](C(=O)O)C(C)C)cc3)cc2)ccn1 | 2400 | 0.7 | 
10 | CC(=O)NCc1cccc(-c2ccc(S(=O)(=O)N[C@@H](C(=O)O)C(C)C)cc2)c1 | > 200000 |  | 
11 | CC(C)[C@@H](NS(=O)(=O)c1ccc(-c2ccc(CO)cc2)cc1)C(=O)O | 15000 |  | 
12 | COC(=O)c1cccc(COc2ccc(-c3ccc(S(=O)(=O)N[C@@H](C(=O)O)C(C)C)cc3)cc2)c1 | 760 | 2.6 | 
13 | CC(Oc1ccc(-c2ccc(S(=O)(=O)N[C@@H](C(=O)O)C(C)C)cc2)cc1)c1cccc(C(F)(F)F)c1 (stereo partly drawn) | 2700 | 12 | 
14 | Cc1c(COc2ccc(-c3ccc(S(=O)(=O)N[C@@H](C(=O)O)C(C)C)cc3)cc2)oc2ccccc12 |  | 4 | IC50 [3]: 3700 nM; inhibition [4]: 89%
15 | CC(C)[C@@H](NS(=O)(=O)c1ccc(-c2ccc(OCc3ccc4ccccc4n3)cc2)cc1)C(=O)O | 10600 |  | 
16 | CC(C)[C@@H](NS(=O)(=O)c1ccc(-c2ccc(OCC3CCCCC3)cc2)cc1)C(=O)O | > 75000 |  | 
17 | CC(C)[C@@H](NS(=O)(=O)c1ccc(-c2ccc(OCc3cccnc3)cc2)cc1)C(=O)O | 30000 |  | 
18 | CC(C)[C@@H](NS(=O)(=O)c1ccc(-c2ccc(OS(=O)(=O)c3ccccc3)cc2)cc1)C(=O)O | 8200 |  | 
19 | Cc1cc(COc2ccc(-c3ccc(S(=O)(=O)N[C@@H](C(=O)O)C(C)C)cc3)cc2)c2ccccc2n1 |  | 9.6 | 
20 | CC(C)[C@@H](NS(=O)(=O)c1ccc(-c2cccc(C(N)=O)c2)cc1)C(=O)O | 8400 |  | 
21 | CC(C)[C@@H](NS(=O)(=O)c1ccc(-c2cccc(CN)c2)cc1)C(=O)O | 7200 |  | 
22 | CC(=O)N(C)Cc1ccc(-c2ccc(S(=O)(=O)N[C@@H](C(=O)O)C(C)C)cc2)cc1 | > 200000 |  | 

Row | SMILES | IC50 [1] [nM] | IC50 [2] [nM] | further results
23 | CC(C)[C@@H](NS(=O)(=O)c1ccc(-c2ccc(OCc3cccc(O)c3)cc2)cc1)C(=O)O | 3700 | 4000 | 
24 | CC(C)[C@@H](NS(=O)(=O)c1ccc(-c2cccc(CO)c2)cc1)C(=O)O | 2100 |  | 
25 | CC(C)[C@@H](NS(=O)(=O)c1ccc(-c2ccc(OCc3ccc4ccccc4c3)cc2)cc1)C(=O)O |  | 1.4 | 
26 | CC(=O)NCc1ccc(-c2ccc(S(=O)(=O)N[C@@H](C(=O)O)C(C)C)cc2)cc1 | 420 | 450 | inhibition [5]: 73%; inhibition [4]: 20%
27 | CC(C)[C@@H](NS(=O)(=O)c1ccc(-c2ccc(OCc3ccc(C(F)(F)F)cc3)cc2)cc1)C(=O)O | 1900 | 2 | 
28 | CC(=O)Nc1ccc(-c2ccc(S(=O)(=O)N[C@@H](C(=O)O)C(C)C)cc2)cc1 | 100000 |  | 
29 | CC(C)[C@@H](NS(=O)(=O)c1ccc(-c2ccc(OCc3ccccc3C(F)(F)F)cc2)cc1)C(=O)O | 9100 | 24700 | 
30 | CC(C)[C@@H](NS(=O)(=O)c1ccc(-c2ccc(OCc3cccc([N+](=O)[O-])c3)cc2)cc1)C(=O)O | 540 | 1.4 | 
31 | CNC(=O)Oc1ccc(-c2ccc(S(=O)(=O)N[C@@H](C(=O)O)C(C)C)cc2)cc1 | 50000 |  | 
32 | CC(C)[C@@H](NS(=O)(=O)c1ccc(-c2ccc(CNC(=O)c3ccccc3)cc2)cc1)C(=O)O | 100000 |  | 
33 | CC(C)[C@@H](NS(=O)(=O)c1ccc(-c2ccc(OCc3cccc(Cl)c3)cc2)cc1)C(=O)O | 400 | 1.4 | 
34 | CC(C)[C@@H](NS(=O)(=O)c1ccc(-c2ccc(Oc3ccccc3)cc2)cc1)C(=O)O | 13200 |  | 
35 | CC(C)[C@@H](NS(=O)(=O)c1ccc(-c2ccc(OCc3ccnc(C(F)(F)F)c3)cc2)cc1)C(=O)O | 2200 | 1 | 
36 | CC(C)[C@@H](NS(=O)(=O)c1ccc(-c2ccc(OC(N)=O)cc2)cc1)C(=O)O | 4100 |  | 
37 | CC(C)[C@@H](NS(=O)(=O)c1ccc(-c2ccc(OCc3ccc(C#N)cc3)cc2)cc1)C(=O)O | 1400 | 0.1 | 
38 | CC(C)[C@@H](NS(=O)(=O)c1ccc(-c2ccc(OCc3ccccn3)cc2)cc1)C(=O)O | 33000 |  | 
39 | CC(C)[C@@H](NS(=O)(=O)c1ccc(-c2ccc(OCc3ccccc3)cc2)cc1)C(=O)O |  | 5.6 | 
40 | CC(C)[C@@H](NS(=O)(=O)c1ccc(-c2ccc(OCc3cccc(Br)c3)cc2)cc1)C(=O)O | 420 | 1600 | 
41 | CC(C)[C@@H](NS(=O)(=O)c1ccc(-c2ccc(OCc3cccc(C(F)(F)F)c3)cc2)cc1)C(=O)O | 310 | 3.5 | IC50 [3]: 2380 nM; inhibition [4]: 87%
42 | CC(C)[C@@H](NS(=O)(=O)c1ccc(-c2ccc(OCc3cccc4ccccc34)cc2)cc1)C(=O)O | 1400 | 7.1 | 
43 | CC(C)[C@@H](NS(=O)(=O)c1ccc(-c2ccc(OCc3cccc(C(=O)O)c3)cc2)cc1)C(=O)O | 22000 | 2.7 | 
